Assay results as given in patent publication US11976062B2, “Benzisoxazole compound” (OSAKA UNIVERSITY, priority 2018, dated 2024).

Tests used:
TRPC6 channel [1] = target: T1, TRPC6 channel (Homo sapiens, UniProt Q9Y210); experiment: Calcium assay using HEK293 cells transiently expressing TRPC6 channel, carbachol activation (Fura-2); assay type: cell-based; settings: 10 μM test compound, carbachol; for amount of increase in calcium ions relative to control (DMSO) taken as 100%: TRPC6-expressing cells
T1 construct: expressed in transfected cells; host or cells: HEK293
T1 sequence (Q9Y210 1-931): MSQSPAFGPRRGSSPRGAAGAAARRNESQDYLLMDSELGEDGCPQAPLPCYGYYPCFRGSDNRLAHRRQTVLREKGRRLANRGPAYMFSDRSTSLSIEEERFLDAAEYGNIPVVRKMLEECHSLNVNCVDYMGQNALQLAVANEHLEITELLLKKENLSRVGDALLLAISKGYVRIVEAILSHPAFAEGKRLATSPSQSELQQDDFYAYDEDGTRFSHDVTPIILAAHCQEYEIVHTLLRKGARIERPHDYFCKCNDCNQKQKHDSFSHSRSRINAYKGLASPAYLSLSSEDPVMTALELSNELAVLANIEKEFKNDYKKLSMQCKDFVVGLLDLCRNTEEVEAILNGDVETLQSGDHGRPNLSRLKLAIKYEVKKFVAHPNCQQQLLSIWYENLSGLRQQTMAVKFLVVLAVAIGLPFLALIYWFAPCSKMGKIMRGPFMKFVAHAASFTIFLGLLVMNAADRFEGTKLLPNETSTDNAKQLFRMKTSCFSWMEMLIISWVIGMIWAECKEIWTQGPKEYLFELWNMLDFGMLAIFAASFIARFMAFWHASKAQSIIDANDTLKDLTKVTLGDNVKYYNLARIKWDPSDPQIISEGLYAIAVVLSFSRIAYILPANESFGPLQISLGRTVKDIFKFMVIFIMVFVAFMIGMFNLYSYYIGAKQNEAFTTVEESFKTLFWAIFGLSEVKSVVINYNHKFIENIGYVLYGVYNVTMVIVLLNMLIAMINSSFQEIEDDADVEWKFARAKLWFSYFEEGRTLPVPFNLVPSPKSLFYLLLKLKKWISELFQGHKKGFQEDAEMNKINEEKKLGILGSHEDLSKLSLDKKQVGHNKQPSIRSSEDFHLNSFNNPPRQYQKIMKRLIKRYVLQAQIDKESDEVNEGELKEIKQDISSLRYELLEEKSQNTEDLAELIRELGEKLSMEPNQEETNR
Protocol: A TRPC6 gene was introduced into HEK293 cells (cells derived from human fetal kidney) by lipofection, and the TRPC6 channel was expressed on the cell membrane. Specifically, the plasmid DNA of TRPC6 (pCI-neo; Promega Corporation) was introduced into HEK293 cells using a lipofection reagent, and then cultured at 37° C. for 24 to 48 hours to express the TRPC6 channel on the cell membrane. In the same manner, HEK293 cells into which the TRPC3 gene was introduced were cultured, and the TRPC3 channel was expressed on the cell membrane.
The cultured cells were peeled off with trypsin and seeded on a cover glass again, followed by culturing the cells at 37° C. for 3 hours again. A Fura-2 AM calcium indicator was added to the medium, and the cells were cultured at 37° C. for 30 minutes to allow the cells to incorporate the indicator. For the extracellular solution, a Ca^2+-containing solution and a Ca^2+-free solution were prepared. • Ca^2+-containing solution: 2 mM CaCl2, 132 mM NaCl, 4 mM KCl, 1 mM MgCl2, 5 mM glucose, 5 mM HEPES (pH 7.4) • Ca^2+-free solution: 132 mM NaCl, 4 mM KCl, 1 mM MgCl2, 5 mM glucose, 5 mM HEPES (pH 7.4)
After the cells were added to the Ca^2+-containing solution, the following operation was performed while the fluorescence intensity (510 nm) of Fura-2 was measured at room temperature with an ARGUS CA-20 (Hamamatsu Photonics K.K.) over time. • 0 minutes: TRPC3-expressing cells or TRPC6-expressing cells are placed in a measurement chamber that contains the Ca^2+-containing solution. • After 30 seconds: The Ca^2+-containing solution is replaced with the Ca^2+-free solution. • After 1 minute: A predetermined amount of a test compound is added to the Ca^2+-free solution. • After 3 minutes: Carbachol (100 μM) is added to the Ca^2+-free solution. • After 7 minutes: The Ca^2+-free solution is replaced with the Ca^2+-containing solution that contains a test compound and carbachol […]. • After 15 minutes: Measurement is ended.
Compound 011 was used as the test compound, and the amount of the test compound added was 0.01, 0.1, 0.5, 1.0, 5.0, 10, or 50 μM. For the control, 0.1% DMSO was used in place of the test compound. Carbachol (cch) is a TRPC-channel-activating reagent. Applying carbachol to cells opens the TRPC channel and allows a large amount of Ca^2+ in the extracellular solution to flow into the cells. Fura-2 AM has high cell membrane permeability due to the presence of an AM group (acetoxymethyl group), and is thus easily incorporated into the cells. The AM group is hydrolyzed in the cells to become Fura-2. Thus, Fura-2 can form a chelate with Ca^2+ and is also unlikely to leak out of the cells due to the loss of the AM group.
In the same manner as in Test Example 1, the maximum calcium ion concentration was measured after 7 minutes from the start of measurement (i.e., after replacement with the Ca^2+-containing solution) by using TRPC6-expressing cells prepared in the same manner as in Test Example 1, except that 10 μM of Pyr 4 and 10 μM of compound 011, 031, 041, or 191 (test compound) were used. The average value of calcium ion concentrations up to 30 seconds after the start of measurement (the initial value of calcium ion concentration) was subtracted from the maximum calcium ion concentration, and the calculated value was determined to be the amount of increase in calcium ions. FIG. 3 illustrates the results.
The calcium ion concentration was measured in the same manner as in Test Example 2, except that 10 μM of compound 011, 361, 362(E), 362(Z), 371, 372(Z), 381, or 401 (test compound) was used, and Pyr 4 was not used, thereby determining the amount of increase in calcium ions. Table 2 illustrates the amount of increase in calcium ions for each test compound relative to the amount of increase in calcium ions in the control (DMSO) taken as 100%.

TRPC6 channel [2] = target: T1, TRPC6 channel; experiment: Calcium assay using HEK293 cells transiently expressing TRPC6 channel, ATP as activating reagent; assay type: cell-based; settings: 10 μM test compound
Protocol: In the same manner as in Test Example 2, the calcium ion concentration was measured, except that 10 μM of Pyr 4 and 10 μM of compound 202(E), 061, or 071 (test compound) were used, and ATP was used as a TRPC channel activating reagent instead of carbachol, thereby determining the amount of increase in calcium ions. FIG. 4 illustrates the results.

[3] = test system: cardiac fibrosis induced by pressure overload; settings: mice, NPL 1 and 2; cited from earlier work

| Structure (SMILES) | amount of increase in calcium ions relative to control (DMSO) taken as 100% (TRPC6 channel [1]) | other results |
| --- | --- | --- |
| C[C@H]1CN(c2ncc(C(=O)O)cc2Cl)CCN1c1noc2cccc(C(F)(F)F)c12 [Compound 031, (S)-5-chloro-6-(3-methyl-4-(4-(trifluoromethyl)benzo[d]isoxazol-3-yl)piperazin-1-yl) nicotinic acid] |  | suppression of TRPC6 channel activation (decrease in calcium ion influx, FIG. 3) (TRPC6 channel [1]): activation of the TRPC6 channel was suppressed |
| C[C@@H]1CN(c2ncc(C(=O)O)cc2Cl)CCN1c1noc2cccc(C(F)(F)F)c12 [Compound 041, (R)-5-chloro-6-(3-methyl-4-(4-(trifluoromethyl)benzo[d]isoxazol-3-yl)piperazin-1-yl) nicotinic acid] |  | suppression of TRPC6 channel activation (decrease in calcium ion influx, FIG. 3) (TRPC6 channel [1]): activation of the TRPC6 channel was suppressed |
| Clc1ccccc1N1CCN(c2noc3cccc(Cl)c23)CC1 [Compound 061, 4-chloro-3-(4-(2-chlorophenyl)piperazin-1-yl)benzo[d]isoxazole] |  | suppression of TRPC6 channel activation (decrease in calcium ion influx, FIG. 4) (TRPC6 channel [2]): activation of the TRPC6 channel was suppressed |
| Clc1cccnc1N1CCN(c2noc3cccc(Cl)c23)CC1 [Compound 071, 4-chloro-3-(4-(3-chloropyridin-2-yl)piperazin-1-yl)benzo[d]isoxazole] |  | suppression of TRPC6 channel activation (decrease in calcium ion influx, FIG. 4) (TRPC6 channel [2]): activation of the TRPC6 channel was suppressed |
| O=C(O)c1cnc(N2CC3CCC(C2)N3c2noc3cccc(C(F)(F)F)c23)c(Cl)c1 [Compound 191, 5-chloro-6-(8-(4-(trifluoromethyl)benzo[d]isoxazol-3-yl)-3,8-diazabicyclo[3,2,1]octan-3-yl)nicotinic acid] |  | suppression of TRPC6 channel activation (decrease in calcium ion influx, FIG. 3) (TRPC6 channel [1]): activation of the TRPC6 channel was suppressed |
| O/N=C(\c1cccc(Cl)c1Cl)N1CCN(c2ccccc2Cl)CC1 [Compound 202(E), (E)-(4-(2-chlorophenyl)piperazin-1-yl)(2,3-dichlorophenyl)methanone oxime] |  | suppression of TRPC6 channel activation (decrease in calcium ion influx, FIG. 4) (TRPC6 channel [2]): activation of the TRPC6 channel was suppressed |
| FC(F)(F)c1cccc2onc(N3CC=C(c4ccccc4Cl)CC3)c12 [Compound 361, 3-(4-(2-chlorophenyl)-3,6-dihydropyridin-1(2H)-yl)-4-(trifluoromethyl)benzo[d]isoxazole] | 72% |  |
| O/N=C(\c1c(F)cccc1C(F)(F)F)N1CC=C(c2ccccc2Cl)CC1 [Compound 362(E), E-(4-(2-chlorophenyl)-3,6-dihydropyridin-1(2H)-yl)(2-fluoro-6-(trifluoromethyl)phenyl)methanone oxime] | 65% |  |
| O/N=C(/c1c(F)cccc1C(F)(F)F)N1CC=C(c2ccccc2Cl)CC1 [Compound 362(Z), (Z)-(4-(2-chlorophenyl)-3,6-dihydropyridin-1(2H)-yl)(2-fluoro-6-(trifluoromethyl)phenyl)methanone oxime] | 54% |  |
| CCOC(=O)c1cnc(N2CCN(c3noc4cccc(C(F)(F)F)c34)CC2=O)c(Cl)c1 [Compound 371, ethyl 5-chloro-6-(2-oxo-4-(4-(trifluoromethyl)benzo[d]isoxazol-3-yl)piperazin-1-yl) nicotinate] | 61% |  |
| CCOC(=O)c1cnc(N2CCN(/C(=N\O)c3c(F)cccc3C(F)(F)F)CC2=O)c(Cl)c1 [Compound 372(Z), ethyl (Z)-5-chloro-6-(4-((2-fluoro-6-(trifluoromethyl)phenyl)(hydroxyimino)methyl)-2-oxopiperazin-1-yl)nicotinate] | 72% |  |
| O=C(O)c1cnc(N2CCN(c3noc4cccc(C(F)(F)F)c34)CC2=O)c(Cl)c1 [Compound 381, 5-chloro-6-(2-oxo-4-(4-(trifluoromethyl)benzo[d]isoxazol-3-yl)piperazin-1-yl)nicotinic acid] | 57% |  |
| O=C(O)c1ccc(C2=CCN(c3noc4cccc(C(F)(F)F)c34)CC2)c(Cl)c1 [Compound 401, 3-chloro-4-(1-(4-(trifluoromethyl)benzo[d]isoxazol-3-yl)-1,2,3,6-tetrahydropyridin-4-yl)benzoic acid] | 19% |  |
| CCOC(=O)c1cnn(-c2ccc(NC(=O)C(Cl)=C(Cl)Cl)cc2)c1C(F)(F)F [Pyr3] |  | suppression of cardiac fibrosis induced by pressure overload [3]: potently suppresses cardiac fibrosis induced by pressure overload |
